Laboratory results as given in publication PMC10582325 (Frontiers in Pharmacology, 2023).

Columns and labels:
[1] = design: method as in Xu et al., 2019; conditions: ref Xu et al., 2019; cited from earlier work
CYP2A6 = biological target: T1, CYP2A6 (Homo sapiens, UniProt P11509); test: Direct CYP inhibition in human liver microsomes with marker probe substrates; conditions: read-out: Inhibition, IC50; HLM, CYP2A6 probe substrate
T1 sequence (P11509 1-494): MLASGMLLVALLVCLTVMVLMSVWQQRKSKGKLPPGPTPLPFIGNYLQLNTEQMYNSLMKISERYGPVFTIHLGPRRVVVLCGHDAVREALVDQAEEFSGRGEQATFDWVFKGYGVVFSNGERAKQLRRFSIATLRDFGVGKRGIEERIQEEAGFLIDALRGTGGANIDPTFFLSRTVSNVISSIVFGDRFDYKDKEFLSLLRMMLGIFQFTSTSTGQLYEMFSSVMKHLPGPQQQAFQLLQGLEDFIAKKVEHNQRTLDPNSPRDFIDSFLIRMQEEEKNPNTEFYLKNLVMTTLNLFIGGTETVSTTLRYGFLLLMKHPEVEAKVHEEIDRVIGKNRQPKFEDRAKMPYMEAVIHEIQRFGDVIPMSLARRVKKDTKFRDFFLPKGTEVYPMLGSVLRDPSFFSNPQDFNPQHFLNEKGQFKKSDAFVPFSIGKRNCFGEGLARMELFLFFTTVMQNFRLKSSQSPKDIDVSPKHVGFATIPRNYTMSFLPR

CYP2B6 = biological target: T2, CYP2B6 (Homo sapiens, UniProt P20813); test: as above; type: in vitro ADME; conditions: HLM, CYP2B6 probe substrate
T2 sequence (P20813 1-491): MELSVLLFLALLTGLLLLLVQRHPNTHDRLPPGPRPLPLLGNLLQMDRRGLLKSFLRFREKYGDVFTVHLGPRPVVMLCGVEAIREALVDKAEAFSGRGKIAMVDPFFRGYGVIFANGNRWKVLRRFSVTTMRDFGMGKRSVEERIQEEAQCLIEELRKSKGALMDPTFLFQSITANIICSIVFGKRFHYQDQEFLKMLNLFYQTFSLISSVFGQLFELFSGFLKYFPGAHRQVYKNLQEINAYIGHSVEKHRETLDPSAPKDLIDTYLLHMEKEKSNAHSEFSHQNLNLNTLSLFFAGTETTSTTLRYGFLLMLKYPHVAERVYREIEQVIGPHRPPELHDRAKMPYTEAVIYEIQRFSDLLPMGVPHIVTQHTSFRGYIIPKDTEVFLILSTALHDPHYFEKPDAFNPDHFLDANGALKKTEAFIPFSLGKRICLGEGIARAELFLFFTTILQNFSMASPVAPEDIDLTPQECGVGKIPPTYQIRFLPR
Description: (§1) The direct inhibition potential of TBI-166 against P450 was determined using the human marker probe reactions for P450 enzymes in human liver microsomes. Briefly, substrate concentrations in the incubation mixture were selected to be around their Km. Eight different concentrations of TBI-166 (from 0.05 to 10 μM) were incubated in human liver microsomes respectively. Incubations were carried out at 37°C in a shaking water bath. The incubation mixtures contained HLM (0.5 mg/mL), probe substrates in the presence or absence of TBI-166 in PBS (100 mM, containing MgCl2 3 mM, pH 7.4). The reactions were initiated by adding NADPH (1 mM) after preincubated the above mixtures at 37°C for 5 min. Positive controls without TBI-166 were included simultaneously. Stock solutions of the test drugs were prepared in acetonitrile. All measurements were performed in triplicate. […] Protein was removed by centrifugation at 4,000 g for 20 min and analyzed by LC-MS/MS ([Li Z. et al., 2019]).
(§2) Metabolites of probe substrates were separated using a Gemini C18 column (2.1 × 50 mm, i. d, […] particle size; United States). […] The analytes and internal standard were detected by positive ion spray in the multiple-reaction-monitoring modes (MRM).
(§3) IC50 values were calculated using nonlinear regression analysis with GraphPad Prism 7 (GraphPad Software Inc., San Diego, CA). […] All data are expressed as the mean ± SD. […]

CYP2J2 = biological target: T3, CYP2J2 (Homo sapiens, UniProt P51589); test: as above; type: in vitro ADME; conditions: HLM, CYP2J2 probe substrate
T3 sequence (P51589 1-502): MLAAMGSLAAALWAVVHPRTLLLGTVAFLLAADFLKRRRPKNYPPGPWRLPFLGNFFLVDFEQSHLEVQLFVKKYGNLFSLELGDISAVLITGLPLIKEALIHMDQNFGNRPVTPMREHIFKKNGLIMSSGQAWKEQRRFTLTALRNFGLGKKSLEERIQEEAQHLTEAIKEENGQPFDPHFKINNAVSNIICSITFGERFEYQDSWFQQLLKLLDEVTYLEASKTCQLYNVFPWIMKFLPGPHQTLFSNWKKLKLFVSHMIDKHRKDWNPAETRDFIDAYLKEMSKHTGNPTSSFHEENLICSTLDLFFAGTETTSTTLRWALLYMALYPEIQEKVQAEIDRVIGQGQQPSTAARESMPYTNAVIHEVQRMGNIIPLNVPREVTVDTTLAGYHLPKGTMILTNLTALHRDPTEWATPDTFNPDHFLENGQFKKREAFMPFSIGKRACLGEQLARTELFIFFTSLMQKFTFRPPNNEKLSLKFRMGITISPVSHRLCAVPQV
Description: as §1, §2, §3

For `COc1ncccc1Nc1cc2nc3ccccc3n(-c3ccc(OC(F)(F)F)cc3)c-2cc1=NC1CCC(OC)CC1` (stereo not shown) [TBI-166, Pyrifazimine], the “concentration in liver tissue” value [1] is listed as 32280 ng/mL, the IC50 (CYP2A6) is listed as 1.38 µM and the IC50 (CYP2B6) is listed as 4.35 µM. For the same compound, the IC50 (CYP2J2) was greater than 50 µM.
